Counter-ions that a name gives are not always drawn.
Experiments:
human RORγt LBD = human RORγt LBD (Homo sapiens (Human), UniProt P51449); test: RORγt reporter assay (GAL4-RORγt LBD luciferase, HEK293T cells); assay type: cell-based; conditions: for RORγt reporter Assay, % inhibition @ 6 μM: HEK293T cells; for inhibition at 6 µM: HEK-293T, read-out: RORγt reporter Assay, % inhibition @ 6 μM, 6 μM, HEK293T cells
Description: A reporter assay was used to test functional activity of RORγt modulatory compounds on transcriptional activation driven by the RORγt LBD. Cells used in the assay were co-transfected with two constructs. The first construct, pBIND-RORγt LBD, contained the wild type human RORγt LBD fused to the DNA binding domain of the GAL4 protein. The second construct, pGL4.31 (Promega Cat no. C935A), contained multiple GAL4 responsive DNA elements upstream of firefly luciferase. […] The mutant construct was called pBIND-RORγt-AF2. […] The pBIND vector contains the GAL4 DNA Binding Domain (GAL4 DBD) and the renilla luciferase gene under control of the SV40 promoter. Renilla luciferase expression serves as a control for transfection efficiency and cell viability.
The reporter assay was performed by transiently transfecting HEK293T cells with 5 μg of pBIND-RORγt LBD or pBIND-RORγt LBD-AF2 and 5 μg pGL4.31 (Promega Cat no. C935A) using Fugene 6 (Invitrogen Cat no. E2691) at a 1:6 ratio of DNA: Fugene 6 in a T-75 flask in which cells were at least 80% confluent. Twenty four hours after bulk transfection, cells were plated into 96-well plates at 50,000 cells/well in phenol-red free DMEM containing 5% Lipid Reduced FCS and Pen/Strep. Six hours after plating, cells were treated with compounds for 24 hours. Media was removed and cells were lysed with 50 μL 1x Glo Lysis Buffer (Promega). Dual Glo Luciferase Reagent (50 μL/well) was then added and firefly luciferase luminescence was read on an Envision after a ten minute incubation. Finally, Stop and Glo reagent (50 μL/well) was added and renilla luciferase luminescence was read on an Envision after a ten minute incubation. To calculate the effect of compounds on RORγt activity, the ratio of firefly to renilla luciferase was determined and plotted against compound concentration. Agonist compounds increase RORγt-driven luciferase expression, and antagonist or inverse agonist compounds decrease luciferase expression.

[1] = tested on: IL-17 production by CD4 T cells; test: Human Th17 assay; assay type: cell-based; conditions: IL-17 in supernatant after 3 days, human CD4+ T cells under Th17 differentiation
Description: The human Th17 assay tests the effect of RORγt modulatory compounds on IL-17 production by CD4 T cells under conditions which favor Th17 differentiation.
Total CD4^+ T cells were isolated from the peripheral blood mononuclear cells (PBMC) of healthy donors using a CD4^+ T cell isolation kit II, following the manufacturer's instructions (Miltenyi Biotec). Cells were resuspended in a medium of RPMI-1640 supplemented with 10% fetal bovine serum, penicillin, streptomycin, glutamate, and β-mercaptoethanol and were added to 96-well plates at 1.5×10^5 per 100 μL per well. 50 μL of compound at titrated concentrations in DMSO were added into each well at final DMSO concentration at 0.2%. Cells were incubated for 1 hour, then 50 μL of Th17 cell differentiation medium was added to each well. The final concentrations of antibodies and cytokines (R&D Systems) in differentiation medium were: 3×10^6/mL anti-CD3/CD28 beads (prepared using human T cell activation/expansion kit, Miltenyi Biotec), 10 μg/mL anti-IL4, 10 μg/mL anti-IFNγ, 10 ng/mL IL113, 10 ng/mL IL23, 50 ng/mL IL6, 3 ng/mL TGFβ and 20 U/mL IL2. Cells were cultured at 37° C. and 5% CO2 for 3 days. Supernatants were collected and the accumulated IL-17 in culture was measured by using MULTI-SPOT® Cytokine Plate following manufacture's instruction (Meso Scale Discovery). The plate was read using Sector Imager 6000, and IL-17 concentration was extrapolated from the standard curve. The IC50s were determined by GraphPad.

Sequence of human RORγt LBD (P51449 258-518): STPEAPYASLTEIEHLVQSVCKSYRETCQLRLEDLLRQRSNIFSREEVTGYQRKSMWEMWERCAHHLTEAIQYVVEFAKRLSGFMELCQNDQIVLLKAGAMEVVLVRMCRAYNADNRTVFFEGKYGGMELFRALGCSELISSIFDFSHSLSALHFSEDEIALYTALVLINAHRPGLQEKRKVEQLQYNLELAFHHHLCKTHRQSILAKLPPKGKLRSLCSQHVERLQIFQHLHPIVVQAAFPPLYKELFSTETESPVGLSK

Compound	RORγt reporter Assay, % inhibition @ 6 μM (human RORγt LBD) [%]	IC50 [1] [µM]	inhibition at 6 µM (human RORγt LBD) [%]	IC50 ([1]; Homo sapiens, CD4+ T, 72 h) [µM]
CCOc1nc2ccc(C(O)(c3ccc(Cl)cc3)c3cncn3C)cc2c(Cl)c1Oc1ccccc1 (single isomer, unassigned) [Example 2a, (4-Chloro-2-ethoxy-3-phenoxyquinolin-6-yl)(4-chlorophenyl)(1-methyl-1H-imidazol-5-yl)methanol.TFA]	88	0.61	–	–
CCOc1nc2ccc(C(O)(c3ccc(Cl)cc3)c3cncn3C)cc2c(Cl)c1Oc1ccccc1 (single isomer, unassigned) [Example 2b]	–	0.66	92	–
CCOc1nc2ccc(C(O)(c3ccc(Cl)cc3)c3cncn3C)cc2c(Cl)c1Oc1ccccc1 (single isomer, unassigned) [Example 2c]	92	0.21	–	–
CCN(CC)c1nc2ccc(C(O)(c3ccc(Cl)cc3)c3cncn3C)cc2c(Cl)c1Oc1ccccc1 (single isomer, unassigned) [Example 3c, (4-Chloro-2-(diethylamino)-3-phenoxyquinolin-6-yl)(4-chlorophenyl)(1-methyl-1H-imidazol-5-yl)methanol]	104	–	–	0.12
CCN(CC)c1nc2ccc(C(O)(c3ccc(OC)nc3)c3cncn3C)cc2c(Cl)c1Oc1ccccc1 (single isomer, unassigned) [Example 5b, (4-Chloro-2-(diethylamino)-3-phenoxyquinolin-6-yl)(6-methoxypyridin-3-yl)(1-methyl-1H-imidazol-5-yl)methanol]	–	–	98	0.085
CCN(CC)c1nc2ccc(C(O)(c3ccc(OC)nc3)c3cncn3C)cc2c(Cl)c1Oc1ccccc1 (single isomer, unassigned) [Example 5c, (4-Chloro-2-(diethylamino)-3-phenoxyquinolin-6-yl)(6-methoxypyridin-3-yl)(1-methyl-1H-imidazol-5-yl)methanol]	104	0.11	–	–
CCN(CC)c1nc2ccc(C(O)(c3ccc(C(F)(F)F)nc3)c3cncn3C)cc2c(Cl)c1Oc1ccccc1 (single isomer, unassigned) [Example 6b, (4-Chloro-2-(diethylamino)-3-phenoxyquinolin-6-yl)(1-methyl-1H-imidazol-5-yl)(6-(trifluoromethyl)pyridin-3-yl)methanol]	–	0.05	93	–
CCN(CC)c1nc2ccc(C(O)(c3ccc(C(F)(F)F)nc3)c3cncn3C)cc2c(Cl)c1Oc1ccccc1 (single isomer, unassigned) [Example 6c, (4-Chloro-2-(diethylamino)-3-phenoxyquinolin-6-yl)(1-methyl-1H-imidazol-5-yl)(6-(trifluoromethyl)pyridin-3-yl)methanol]	88	0.21	–	–
CCN(CC)c1nc2ccc(C(O)(c3ccc(C(F)(F)F)nc3)c3cncn3C)cc2c(Cl)c1Oc1ccc(F)cc1 (single isomer, unassigned) [Example 9b]	81	0.32	–	–
CCN(CC)c1nc2ccc(C(O)(c3ccc(C(F)(F)F)nc3)c3cncn3C)cc2c(Cl)c1Oc1ccc(F)cc1 (single isomer, unassigned) [Example 9c]	84	0.092	–	–
CCOc1nc2ccc(C(O)(c3ccc(OC)nc3)c3cncn3C)cc2c(Cl)c1Oc1ccccc1 (single isomer, unassigned) [Example 10b]	97	0.078	–	–
CCOc1nc2ccc(C(O)(c3ccc(OC)nc3)c3cncn3C)cc2c(Cl)c1Oc1ccccc1 (single isomer, unassigned) [Example 10c]	103	0.095	–	–
CCOc1nc2ccc(C(O)(c3ccc(C(F)(F)F)nc3)c3cncn3C)cc2c(C(F)(F)F)c1Oc1ccc(Cl)cc1 (single isomer, unassigned) [Example 25b, (3-(4-Chlorophenoxy)-2-ethoxy-4-(trifluoromethyl)quinolin-6-yl)(1-methyl-1H-imidazol-5-yl)(6-(trifluoromethyl)pyridin-3-yl)methanol]	92	–	–	0.44
CCN(CC)c1nc2ccc(C(O)(c3ccc(C(F)(F)F)nc3)c3cncn3C)cc2c(C(F)(F)F)c1Oc1ccc(Cl)cc1 (single isomer, unassigned) [Example 27b, (3-(4-Chlorophenoxy)-2-(diethylamino)-4-(trifluoromethyl)quinolin-6-yl)(1-methyl-1H-imidazol-5-yl)(6-(trifluoromethyl)pyridin-3-yl)methanol]	–	0.051	92	–
CCN(CC)c1nc2ccc(C(O)(c3ccc(C(F)(F)F)nc3)c3cncn3C)cc2c(C(F)(F)F)c1Oc1ccc(Cl)cc1 (single isomer, unassigned) [Example 27c, (3-(4-Chlorophenoxy)-2-(diethylamino)-4-(trifluoromethyl)quinolin-6-yl)(1-methyl-1H-imidazol-5-yl)(6-(trifluoromethyl)pyridin-3-yl)methanol]	89	0.49	–	–
Cn1cncc1C(O)(c1ccc(C(F)(F)F)nc1)c1ccc2nc(N3CCC3)c(Oc3ccc(Cl)cc3)c(Cl)c2c1 (single isomer, unassigned) [Example 30b, (2-(Azetidin-1-yl)-4-chloro-3-(4-chlorophenoxy)quinolin-6-yl)(1-methyl-1H-imidazol-5-yl)(6-(trifluoromethyl)pyridin-3-yl)methanol]	–	0.064	103	–
Cn1cncc1C(O)(c1ccc(C(F)(F)F)nc1)c1ccc2nc(N3CCC3)c(Oc3ccc(Cl)cc3)c(Cl)c2c1 (single isomer, unassigned) [Example 30c, (2-(Azetidin-1-yl)-4-chloro-3-(4-chlorophenoxy)quinolin-6-yl)(1-methyl-1H-imidazol-5-yl)(6-(trifluoromethyl)pyridin-3-yl)methanol]	97	0.02	–	–
Cn1cncc1C(O)(c1ccc(C(F)(F)F)nc1)c1ccc2nc(N3CCC3)c(Oc3ccc(C#N)cc3)c(Cl)c2c1 (single isomer, unassigned) [Example 31b, 4-((2-(Azetidin-1-yl)-4-chloro-6-(hydroxy(1-methyl-1H-imidazol-5-yl)(6-(trifluoromethyl)pyridin-3-yl)methyl)quinolin-3-yl)oxy)benzonitrile]	–	~0.1	–	–
Cn1cncc1C(O)(c1ccc(C(F)(F)F)nc1)c1ccc2nc(N3CCC3)c(Oc3ccc(C#N)cc3)c(Cl)c2c1 (single isomer, unassigned) [Example 31c, 4-((2-(Azetidin-1-yl)-4-chloro-6-(hydroxy(1-methyl-1H-imidazol-5-yl)(6-(trifluoromethyl)pyridin-3-yl)methyl)quinolin-3-yl)oxy)benzonitrile]	–	0.017	–	–
Cn1cncc1C(O)(c1ccc(C(F)(F)F)nc1)c1ccc2nc(N3CCCC3)c(Oc3ccc(C#N)cc3)c(Cl)c2c1 (stereo not drawn) [Example 33, 4-((4-Chloro-6-(hydroxy(1-methyl-1H-imidazol-5-yl)(6-(trifluoromethyl)pyridin-3-yl)methyl)-2-(pyrrolidin-1-yl)quinolin-3-yl)oxy)benzonitrile]	–	–	–	0.088
CN(c1ccccc1)c1c(Cl)nc2ccc(C(O)(c3cccnc3)c3cccc(Cl)c3)cc2c1Cl (stereo not drawn) [Example 35, (3-Chlorophenyl)(2,4-dichloro-3-(methyl(phenyl)amino)quinolin-6-yl)(pyridin-3-yl)methanol]	–	–	–	~1
CCN(c1ccccc1)c1c(Cl)nc2ccc(C(O)(c3cccnc3)c3cccc(Cl)c3)cc2c1Cl (stereo not drawn) [Example 39, (3-Chlorophenyl)(2,4-dichloro-3-(ethyl(phenyl)amino)quinolin-6-yl)(pyridin-3-yl)methanol]	–	–	–	> 6
